The text below walks through data of patent US9931335B2, “Desethylhydroxychloroquine for the treatment of diseases associated with inflammation” (The Board of Trustees of the Leland Stanford Junior …, priority 2013, dated 2018).

Entries after “also recorded” stand apart in the source; their conditions may differ. Where a name gives a salt, the structure may show the parent alone.

For one data set, the system named is ARPE-19 cells. The procedure: The major serious risk to long term administration of hydroxychloroquine is retinal accumulation and subsequent ocular toxicity (Terahi et al, 2008. Semin Opthal. (3):201-208. PMID). The ocular deposition of HCQ, DHCQ, and BDCQ was evaluated by direct retinal cellular toxicity by incubating equivalent concentrations of these molecules with the retinal pigmented epithelial cell line ARPE-19. ARPE-19 is a human retinal pigment epithelial cell line with differentiated properties (Dunn et al., Exp Eye Res. 1996 62(2):155-69). ARPE-19 cells were grown to 90% confluence, and then exposed to 10 µg/ml of HCQ, DHCQ, BDCQ, or vehicle control for 24 hours, following which microscopic analysis and photomicroscopy was performed at 40× power.
As described above, ARPE-19 cells were grown to 90% confluence then exposed to 10 μg/ml HCQ, DHCQ, BDCQ, or vehicle control for 24 hours followed by quantitation of cell death by lactate dehydrogenase (LDH) release assay (Abcam).

For data set [1], the system named is collagen-induced arthritis (CIA) in DBA/1 mice. As to the kind of experiment: Collagen-induced arthritis (CIA) mouse model for RA, treatment from first immunization. Format: in vivo. To be noted: 50 mg/kg/day oral gavage, 100 mg/kg/day loading day 14-21; vs vehicle, Mann Whitney U test P<0.05.
The test system of data set [2] is diet-induced obesity in C57BL/6 mice. As to the kind of experiment: Mouse diet-induced obesity: type II diabetes, hyperlipidemia and metabolic syndrome. Particulars: 10 mg/kg/day, 6 weeks, vs vehicle; for blood glucose: two-tailed T test. Format: in vivo. The procedure: To evaluate treatment with DHCQ and HCQ on a mouse model of diet-induced type II diabetes, hyperlipidemia and metabolic syndrome, C57BL/6 mice (8 per group) were fed a high-fat “western-style” diet (60% caloric content from fat; Taconic). In an analogous fashion to that in Example 6, two weeks following initiation of the high-fat diet groups of mice were initiated on treatment with vehicle control, HCQ (10 mg/kg/day) or the HCQ metabolites DHCQ (10 mg/kg/day), DCQ (10 mg/kg/day), or BDCQ (10 mg/kg/day). After 6 weeks of treatment, blood was collected for analysis of glucose, triglyceride, and cholesterol levels.

The next data set has as its system retinal toxicity. To be noted: cited from earlier work.
Data set [3] concerns DMM-induced OA in C57BL6 (B6) mice. As to the kind of experiment: Destabilization of the medial meniscus (DMM) mouse model of osteoarthritis. To be noted: aminoquinolines 100 mg/kg/day, atorvastatin 40 mg/kg/day, oral gavage from 1 week after DMM, 3 months; vs vehicle, two-tailed T test. Format: in vivo. The procedure: One week following surgical induction, treatment was initiated with vehicle control, hydroxychloroquine (HCQ), or desethylhydroxychloroquine (DHCQ) dosed at 100 mg/kg/day by oral gavage (once per day). After 3 months, mice were sacrificed, joints harvested, joint sections cut, and tissue sections stained with safranin-O. An examiner blinded to treatment used microscopy to score the severity of OA. The “Cartilage Degeneration Score” (also known as the “OA score”, “Severity Score” and “Histology Score”) was determined by a blinded examiner, and the two-tailed T test used to determine if there were statistical differences in the Cartilage Degeneration Scores between groups.
The histologic sections generated at the termination of the mouse OA experiment presented above and in FIG. 5 were subject to blinded scoring for the “Osteophyte Score” (measure of the amount of osteophyte or ectopic bone formation) and “Synovitis Score” (measure of the amount of synovial and joint inflammation). The scores between groups were compared by two-tailed T test.
Experiments were performed under protocols approved by the Stanford University Committee of Animal Research and in accordance with NIH guidelines. Murine OA was generated by surgically by destabilization of the DMM (Glasson, S., S., et al., Osteoarthritis Cartilage, 15: 1061-1069 (2007)).
Mice were euthanized 3 months after surgery. Their stifle joints were decalcified in EDTA solution, fixed in 4% paraformaldehyde, and embedded in paraffin. Serial 4 micron sections were cut and stained with toluidine blue. Scoring of arthritis in these histology sections was done according to a modified version of previously described composite scoring systems (Kamekura, S., et al. Osteoarthritis Cartilage 13: 632-641 (2005); Bendele, A. M., J Musculoskelet Neuronal Interact., 1: 363-376 (2001)). The “OA Score” was calculated as follows: cartilage degeneration (0-4) was multiplied by the width (1=1/3, 2=2/3, and 3=3/3 of surface area) of each third of the femoral-medial and tibial-medial condyles, and the scores for the 6 regions were summed. To evaluate osteophyte (ectopic bone) formation, we scored toluidine-blue-stained sections according to a previously described scoring system (Kamekura, S., et al. Osteoarthritis development in novel experimental mouse models induced by knee joint instability. Osteoarthritis Cartilage 13, 632-641 (2005)): 0, none; 1, formation of cartilage-like tissues; 2, increase of cartilaginous matrix; 3, endochondral ossification. To evaluate synovitis, we scored H&E-stained sections according to a previously described scoring system (Blom, A. B., et al. Synovial lining macrophages mediate osteophyte formation during experimental osteoarthritis. Osteoarthritis Cartilage 12, 627-635 (2004)): 0, no changes compared to normal joints; 1, thickening of the synovial lining and some influx of inflammatory cells; 2, thickening of the synovial lining and intermediate influx of inflammatory cells; and 3, profound thickening of the synovial lining (more than four cell layers) and maximal observed influx of inflammatory cells. Scores for osteophyte formation and synovitis were recorded for the femoral-medial and the tibial-medial condyles on the operated side of the joint, and the scores for the two regions were summed and statistical comparisons performed using a two-tailed T test.
Treatment was started 1 week after surgical induction of destabilization of the medial meniscus (DMM), a time point at which mice were at increased risk for the development of OA.

As to `CC(CCCN)Nc1ccnc2cc(Cl)ccc12` (centres unmarked) [BDCQ, bisdesethylchloroquine], the “ARPE-19 cellular toxicity by microscopy” value with ARPE-19 cells is “increased cytotoxicity and death”. Besides, the “arthritis score (development of disease and disease activity)” value in data set [1] is given as “not associated with statistical protection or reduction in disease severity”. In data set [2], the total cholesterol entry is listed as “did not result in statistical reductions”, the triglycerides result was “did not result in statistical reductions” and the blood glucose result is “did not result in statistical reductions in blood glucose”.

In the case of `CCNCCCC(C)Nc1ccnc2cc(Cl)ccc12` (centres unmarked) [DCQ, desethylchloroquine], the “arthritis score (development of disease and disease activity)” value in data set [1] is given as “not associated with statistical protection or reduction in disease severity”. Besides, in data set [2], the total cholesterol entry is on record as “did not result in statistical reductions”, the triglycerides entry is “did not result in statistical reductions” and the blood glucose result is on record as “did not result in statistical reductions in blood glucose”.

Turning to `CCN(CCO)CCCC(C)Nc1ccnc2cc(Cl)ccc12` (centres unmarked) [HCQ sulfate, hydroxychloroquine sulfate], in the data set with retinal toxicity (treated humans, conventional doses), the “incidence of retinal toxicity after 5 years” value is given as 0.5-1%. In addition, in the data set on retinal toxicity (treated humans), the “incidence of retinal toxicity after 10-15 years” value was “approximately 2%”. In addition, the “physician discontinuation for earlier eye problems over 5 years” value in the data set on retinal toxicity (treated patients) is recorded as approximately 7%.

For `CC(C)c1c(C(=O)Nc2ccccc2)c(-c2ccccc2)c(-c2ccc(F)cc2)n1CC[C@@H](O)C[C@@H](O)CC(=O)O` [atorvastatin, reference compound], in data set [3], the “Cartilage Degeneration Score (OA score)” value is listed as “only resulted in trends towards improvement; also recorded: did not result in a statistically significant reduction in the severity of OA”.

Consider `CCN(CC)CCCC(C)Nc1ccnc2cc(Cl)ccc12` (centres unmarked) [chloroquine], for which the “rates of retinal toxicity relative to HCQ” value in the data set on retinal toxicity (in vivo) is listed as “Considerably higher rates of toxicity”.
